Values after ≈ are worked out from the molar mass of the structure shown.
What was measured:
[1] = tested on: Peptococcus variabilis; test: Susceptibility of anaerobic cocci isolates, agar dilution (Table 16); assay type: cell-based; conditions: 24 h
[2] = tested on: Bacteroides thetaiotaomicron; test: Susceptibility of anaerobic bacterial isolates, agar dilution (Table 13); assay type: cell-based; conditions: strain 1438, 24 hr, A84575: 3 different lots
Description: (§1) *MIC Determined by the AgarDilution Method, Endpoints Read After 24Hr.

[3] = tested on: Peptococcus prevoti; test: as above; assay type: cell-based; conditions: strain 1281; 24 hr; A84575: 3 different lots
Description: as §1

[4] = tested on: Clostridium septicum; test: as above; assay type: cell-based; conditions: strain 1128, 24 hr, A84575: 3 different lots
Description: as §1

[5] = tested on: Clostridium difficile; test: as above; assay type: cell-based; conditions: Clostridioides difficile; strain 2994; 24 hr; A84575: 3 different lots
Description: as §1

[6] = tested on: Peptococcus asaccharolyticus; test: Susceptibility of anaerobic cocci isolates, agar dilution (Table 16); assay type: cell-based; conditions: Peptoniphilus asaccharolyticus, 24 h
[7] = tested on: Bacteroides malaninogenicus; test: Susceptibility of anaerobic bacterial isolates, agar dilution (Table 13); assay type: cell-based; conditions: 24 h
[8] = tested on: Streptococcus pyogenes; test: In vitro activity vs. Streptococcus pyogenes strains, agar dilution, Mueller-Hinton agar (Table 11)
[9] = tested on: Peptostreptococcus anaerobium; test: Susceptibility of anaerobic bacterial isolates, agar dilution (Table 13); assay type: cell-based; conditions: 24 h
[10] = tested on: Fusobacterium symbiosum; test: as above; assay type: cell-based; conditions: 24 h
[11] = tested on: Peptostreptococcus intermedius; test: as above; assay type: cell-based; conditions: 24 h
[12] = tested on: Streptococcus pneumoniae; test: In vitro activity vs. Streptococcus pneumoniae strains, agar dilution, Mueller-Hinton agar (Table 10)
[13] = tested on: Peptococcus magnus; test: Susceptibility of anaerobic cocci isolates, agar dilution (Table 16); assay type: cell-based; conditions: Finegoldia magna, 24 h
[14] = tested on: Streptococcus aureus; test: In vivo activity, administered subcutaneously to mice (Table 17); conditions: sc
[15] = tested on: Peptostreptococcus intermedius; test: Susceptibility of anaerobic cocci isolates, agar dilution (Table 16); assay type: cell-based; conditions: 24 h
[16] = tested on: Clostridium perfringens; test: microbe, parasite or virus in culture; assay type: cell-based; conditions: 24 h
[17] = tested on: Bacteroides fragilis; test: Susceptibility of anaerobic bacterial isolates, agar dilution (Table 13); assay type: cell-based
[18] = tested on: Peptococcum asaccharolyticus; test: as above; assay type: cell-based; conditions: 24 h
[19] = tested on: Peptococcus constellatus; test: Susceptibility of anaerobic cocci isolates, agar dilution (Table 16); assay type: cell-based; conditions: Streptococcus constellatus, 24 h
[20] = tested on: Bacteroides vulgatis; test: Susceptibility of anaerobic bacterial isolates, agar dilution (Table 13); assay type: cell-based; conditions: 24 h
[21] = tested on: Clostridium difficile; test: Susceptibility of Clostridium difficile strains, agar dilution (Table 14); assay type: cell-based; conditions: Clostridioides difficile, 24 h
Description: as §1

[22] = tested on: Peptostreptococcus anaerobius; test: Susceptibility of anaerobic cocci isolates, agar dilution (Table 16); assay type: cell-based; conditions: 24 h
[23] = tested on: Propionibacterium acnes; test: Susceptibility of anaerobic bacterial isolates, agar dilution (Table 13); assay type: cell-based; conditions: Cutibacterium acnes, 24 h
[24] = tested on: Streptococcus pneumoniae; test: In vivo activity, administered subcutaneously to mice (Table 17); conditions: sc, subcutaneous, LD challenge 587
[25] = Plasma levels in mice (Table 18); assay type: in vivo, mice (ICR Barrier); design: unit not given here; conditions: subcutaneous, 20 mg/kg, n = 5

Structure (SMILES): CN[C@H](CC(C)C)C(=O)N[C@H]1C(=O)N[C@@H](CC(N)=O)C(=O)N[C@H]2C(=O)N[C@H]3C(=O)N[C@H](C(=O)N[C@H](C(=O)O)c4cc(O)cc(O)c4-c4cc3ccc4O)[C@H](O)c3ccc(c(Cl)c3)Oc3cc2cc(c3O[C@@H]2O[C@H](CO)[C@@H](O)[C@H](O)[C@H]2O[C@H]2C[C@](C)(N)[C@H](O)[C@H](C)O2)Oc2ccc(cc2Cl)[C@H]1O [Vancomycin]
- MIC [1]: 0.125 µg/mL (≈ 0.0863 µM)
- MIC [2]: 16 µg/mL (≈ 11 µM)
- MIC [3]: 4 µg/mL (≈ 2.76 µM)
- MIC [4]: 2 µg/mL (≈ 1.38 µM)
- MIC [5]: 2 µg/mL (≈ 1.38 µM)
- MIC ([6]; strain 1302, A84575: 3 different lots): 1 µg/mL (≈ 0.69 µM)
- MIC ([6]; strain WAL-3218, A84575: 3 different lots): 0.125 µg/mL (≈ 0.0863 µM)
- MIC ([7]; strain 1856/28, A84575: 3 different lots): > 64 µg/mL
- MIC ([7]; strain 2736, A84575: 3 different lots): 16 µg/mL (≈ 11 µM)
- MIC ([8]; ATCC12344, strain ATCC 12344): 1 µg/mL (≈ 0.69 µM)
- MIC ([8]; strain 9931): 0.5 µg/mL (≈ 0.345 µM)
- MIC ([8]; strain 10389): 0.5 µg/mL (≈ 0.345 µM)
- MIC ([8]; strain 12385): 2 µg/mL (≈ 1.38 µM)
- MIC ([8]; strain 12961): 1 µg/mL (≈ 0.69 µM)
- MIC ([8]; strain C203): 1 µg/mL (≈ 0.69 µM)
- MIC ([8]; strain DS663-72): 0.5 µg/mL (≈ 0.345 µM)
- MIC ([8]; strain HB93): 1 µg/mL (≈ 0.69 µM)
- MIC ([8]; strain K-1): 0.5 µg/mL (≈ 0.345 µM)
- MIC ([8]; strain K-2): 0.5 µg/mL (≈ 0.345 µM)
- MIC ([8]; strain K-3): 0.5 µg/mL (≈ 0.345 µM)
- MIC ([8]; strain K-4): 1 µg/mL (≈ 0.69 µM)
- MIC ([8]; strain K-5): 1 µg/mL (≈ 0.69 µM)
- MIC ([8]; strain K-6): 0.5 µg/mL (≈ 0.345 µM)
- MIC [9]: 1 µg/mL (≈ 0.69 µM)
- MIC [10]: 1 µg/mL (≈ 0.69 µM)
- MIC [11]: 1 µg/mL (≈ 0.69 µM)
- MIC ([12]; ATCC6301, strain ATCC 6301): 4 µg/mL (≈ 2.76 µM)
- MIC ([12]; strain 97P): 0.25 µg/mL (≈ 0.173 µM)
- MIC ([12]; strain 2764): 0.25 µg/mL (≈ 0.173 µM)
- MIC ([12]; strain BI5): 0.5 µg/mL (≈ 0.345 µM)
- MIC ([12]; strain BI343): 0.25 µg/mL (≈ 0.173 µM)
- MIC ([12]; strain BI348): 0.25 µg/mL (≈ 0.173 µM)
- MIC ([12]; strain BI374): 4 µg/mL (≈ 2.76 µM)
- MIC ([12]; strain BI508): 0.5 µg/mL (≈ 0.345 µM)
- MIC ([12]; strain BI180351): 0.25 µg/mL (≈ 0.173 µM)
- MIC ([12]; strain BI-492): 0.5 µg/mL (≈ 0.345 µM)
- MIC ([12]; strain HZ-4-2): 0.25 µg/mL (≈ 0.173 µM)
- MIC ([12]; strain M11-1-H7): 0.5 µg/mL (≈ 0.345 µM)
- MIC ([12]; strain M11-1-H10): 0.25 µg/mL (≈ 0.173 µM)
- MIC ([12]; strain M11-Z-Al): 0.25 µg/mL (≈ 0.173 µM)
- MIC ([12]; strain Park I): 0.5 µg/mL (≈ 0.345 µM)
- MIC ([13]; strain 1401, A84575: 3 different lots): 0.125 µg/mL (≈ 0.0863 µM)
- MIC ([13]; strain 1421, A84575: 3 different lots): 0.5 µg/mL (≈ 0.345 µM)
- MIC ([13]; strain 29328, A84575: 3 different lots): 1 µg/mL (≈ 0.69 µM)
- ED50 [14]: 0.83 mg/kg
- MIC ([15]; strain 1524, A84575: 3 different lots): 1 µg/mL (≈ 0.69 µM)
- MIC ([15]; strain 1624, A84575: 3 different lots): 0.25 µg/mL (≈ 0.173 µM)
- MIC [16]: 1 µg/mL (≈ 0.69 µM)
- MIC ([17]; Bacteroides fragilis, 24 h): 16 µg/mL (≈ 11 µM)
- MIC ([17]; strain 1877, 24 hr, A84575: 3 different lots): 16 µg/mL (≈ 11 µM)
- MIC ([17]; strain 1936B, 24 hr, A84575: 3 different lots): 16 µg/mL (≈ 11 µM)
- MIC [18]: 4 µg/mL (≈ 2.76 µM)
- MIC [19]: 1 µg/mL (≈ 0.69 µM)
- MIC [20]: 8 µg/mL (≈ 5.52 µM)
- MIC ([21]; strain 78, A84575: 3 different lots): 4 µg/mL (≈ 2.76 µM)
- MIC ([21]; strain 107B, A84575: 3 different lots): 0.25 µg/mL (≈ 0.173 µM)
- MIC ([21]; strain 111F, A84575: 3 different lots): 1 µg/mL (≈ 0.69 µM)
- MIC ([21]; strain 1153, A84575: 3 different lots): 1 µg/mL (≈ 0.69 µM)
- MIC ([21]; strain 2634, A84575: 3 different lots): 0.5 µg/mL (≈ 0.345 µM)
- MIC ([21]; strain 3424-5B, A84575: 3 different lots): 1 µg/mL (≈ 0.69 µM)
- MIC ([21]; strain 3816, A84575: 3 different lots): 1 µg/mL (≈ 0.69 µM)
- MIC ([21]; strain 3950D, A84575: 3 different lots): 0.5 µg/mL (≈ 0.345 µM)
- MIC ([21]; strain 6890, A84575: 3 different lots): 0.5 µg/mL (≈ 0.345 µM)
- MIC ([21]; strain 8484, A84575: 3 different lots): 2 µg/mL (≈ 1.38 µM)
- MIC ([21]; strain A-194, A84575: 3 different lots): 1 µg/mL (≈ 0.69 µM)
- MIC ([21]; strain A-195, A84575: 3 different lots): 0.5 µg/mL (≈ 0.345 µM)
- MIC ([21]; strain A-196, A84575: 3 different lots): 0.5 µg/mL (≈ 0.345 µM)
- MIC ([21]; strain A-279, A84575: 3 different lots): 0.5 µg/mL (≈ 0.345 µM)
- MIC ([21]; strain A-280, A84575: 3 different lots): 1 µg/mL (≈ 0.69 µM)
- MIC ([21]; strain A-281, A84575: 3 different lots): 1 µg/mL (≈ 0.69 µM)
- MIC ([21]; strain WAL-2112, A84575: 3 different lots): 1 µg/mL (≈ 0.69 µM)
- MIC ([21]; strain WAL-3657, A84575: 3 different lots): 2 µg/mL (≈ 1.38 µM)
- MIC ([21]; strain WAL-4268, A84575: 3 different lots): 1 µg/mL (≈ 0.69 µM)
- MIC ([22]; strain 8, A84575: 3 different lots): 1 µg/mL (≈ 0.69 µM)
- MIC ([22]; strain 52, A84575: 3 different lots): 1 µg/mL (≈ 0.69 µM)
- MIC ([22]; strain 59, A84575: 3 different lots): 0.25 µg/mL (≈ 0.173 µM)
- MIC ([22]; strain 1428, A84575: 3 different lots): 0.03 µg/mL (≈ 0.0207 µM)
- MIC ([22]; strain 1451, A84575: 3 different lots): 2 µg/mL (≈ 1.38 µM)
- MIC ([22]; strain 1477, A84575: 3 different lots): 2 µg/mL (≈ 1.38 µM)
- MIC [23]: 4 µg/mL (≈ 2.76 µM)
- ED50 [24]: 1.58 mg/kg
- Plasma level ([25]; 0.08 hours, *1 only 1 zone out of 5 (A84575 Complex)): 5.84 ± 2.68
- Plasma level ([25]; 0.33 hours): 14.25 ± 7.8
- Plasma level ([25]; 0.66 hours): 7.47 ± 2.5
- Plasma level ([25]; 1 hour): 5.41 ± 2.4
- Plasma level ([25]; 2 hours, *2 one very high concentration in one animal (A84575 Complex)): 0.87 ± 0.2
